Measured values: patent US9387200B2, “Isothiazole-pyridine derivatives as modulators of HIF (hypoxia inducible factor) activity” (FibroGen, Inc., priority 2008, dated 2016)

These compounds were tested against T1, HIF-PH2 (Homo sapiens, UniProt Q9GZT9) (assay: HIF-PH assay (14CO2 capture, peptide-dependent turnover)). Conditions: compound concentration 22.22 μM.
T1 construct: made in house; host or cells: insect Hi5 cells
Assay type: biochemical
Excerpt: Ketoglutaric acid α-[1-^14C]-sodium salt, alpha-ketoglutaric acid sodium salt, and HPLC purified peptide may be obtained from commercial sources, e.g., Perkin-Elmer (Wellesley Mass.), Sigma-Aldrich, and SynPep Corp. (Dublin Calif.), respectively. Peptides for use in the assay may be fragments of HIFα as described above or as disclosed in International Publication WO 2005/118836, incorporated by reference herein. For example, a HIF peptide for use in the HIF-PH assay is [methoxycoumarin]-DLDLEALAPYIPADDDFQL-amide. HIF-PH, e.g., HIF-PH2 (EGLN1), can be expressed in, e.g., insect Hi5 cells, and partially purified, e.g., through a SP ion exchange chromatography column. Enzyme activity is determined by capturing ^14CO2 using an assay described by Kivirikko and Myllyla (1982, Methods Enzymol. 82:245-304). Assay reactions contain 50 mM HEPES (pH 7.4), 100 μM α-ketoglutaric acid sodium salt, 0.30 μCi/mL ketoglutaric acid α-[1-^14C]-sodium salt, 40 μM FeSO4, 1 mM ascorbate, 1541.8 units/mL Catalase, with or without 50 μM peptide substrate and various concentrations of compound of the invention. Reactions are initiated by addition of HIF-PH enzyme.
The peptide-dependent percent turnover is calculated by subtracting percent turnover in the absence of peptide from percent turnover in the presence of substrate peptide. Percent inhibition and IC50 are calculated using peptide-dependent percent turnover at given inhibitor concentrations. Calculation of IC50 values for each inhibitor is conducted using GraFit software (Erithacus Software Ltd., Surrey UK).
Representative compounds of the invention were analyzed using the HIF-PH assay described above. Table I below presents enzyme inhibition data for exemplary compounds against HIF-PH2, a representative HIF prolyl hydroxylase enzyme. By inhibiting HIF prolyl hydroxylase enzymes, compounds of the invention stabilize HIFα, which then combines with HIFβ to form an active transcription factor that increases expression of various genes involved in numerous beneficial cellular processes.

T1 sequence (Q9GZT9 whole entry, species assumed): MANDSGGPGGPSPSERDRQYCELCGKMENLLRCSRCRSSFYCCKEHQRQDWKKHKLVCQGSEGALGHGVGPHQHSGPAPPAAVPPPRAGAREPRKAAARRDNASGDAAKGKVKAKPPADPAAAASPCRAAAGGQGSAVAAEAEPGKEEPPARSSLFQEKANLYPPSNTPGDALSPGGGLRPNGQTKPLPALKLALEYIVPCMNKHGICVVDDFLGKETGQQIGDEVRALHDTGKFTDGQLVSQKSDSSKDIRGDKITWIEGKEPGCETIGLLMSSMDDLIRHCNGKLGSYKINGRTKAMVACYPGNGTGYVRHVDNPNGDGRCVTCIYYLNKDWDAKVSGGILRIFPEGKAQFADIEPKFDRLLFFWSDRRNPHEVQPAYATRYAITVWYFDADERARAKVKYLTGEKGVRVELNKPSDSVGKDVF

inhibition at 22.22 µM [%] | Structure (SMILES)
70 | Cc1nsc2c(-c3cnccn3)nc(C(=O)NCC(=O)O)c(O)c12 [Example 40, [(4-Hydroxy-3-methyl-7-pyrazin-2-yl-isothiazolo[5,4-c]pyridine-5-carbonyl)-amino]-acetic acid]
98 | Cc1nsc2c(O)c(C(=O)NCC(=O)O)nc(-c3cnccn3)c12 [Example 41, [(7-Hydroxy-3-methyl-4-pyrazin-2-yl-isothiazolo[4,5-c]pyridine-6-carbonyl)-amino]-acetic acid]
100 | O=C(O)CNC(=O)c1nc(-c2ccccc2)c2c(Cn3ccc4ccccc43)nsc2c1O [Example 42, [(7-Hydroxy-3-indol-1-ylmethyl-4-phenyl-isothiazolo[4,5-c]pyridine-6-carbonyl)-amino]-acetic acid]
97 | O=C(O)CNC(=O)c1ncc2snc(-c3ccccc3)c2c1O [Example 43, [(4-Hydroxy-3-phenyl-isothiazolo[5,4-c]pyridine-5-carbonyl)-amino]-acetic acid]
91 | Cc1nc(C(=O)NCC(=O)O)c(O)c2c(-c3ccccc3)nsc12 [Example 44, [(4-Hydroxy-7-methyl-3-phenyl-isothiazolo[5,4-c]pyridine-5-carbonyl)-amino]-acetic acid]
97 | O=C(O)CNC(=O)c1nc(-c2ccccc2)c2snc(-c3ccccc3)c2c1O [Example 45, [(4-Hydroxy-3,7-diphenyl-isothiazolo[5,4-c]pyridine-5-carbonyl)-amino]-acetic acid]

Same assay, conditions: compound concentration 200 μM

inhibition at 200 µM [%] | Structure (SMILES)
100 | Cc1nsc2c(-c3cccnc3)nc(C(=O)NCC(=O)O)c(O)c12 [Example 37, [(4-Hydroxy-3-methyl-7-pyridin-3-yl-isothiazolo[5,4-c]pyridine-5-carbonyl)-amino]-acetic acid]
74 | Cc1nsc2c(-c3ccccn3)nc(C(=O)NCC(=O)O)c(O)c12 [Example 38, [(4-Hydroxy-3-methyl-7-pyridin-2-yl-isothiazolo[5,4-c]pyridine-5-carbonyl)-amino]-acetic acid]
100 | C#Cc1nc(C(=O)NCC(=O)O)c(O)c2c(C)nsc12 [Example 39, [(7-Ethynyl-4-hydroxy-3-methyl-isothiazolo[5,4-c]pyridine-5-carbonyl)-amino]-acetic acid]
99 | CCc1nc(C(=O)NCC(=O)O)c(O)c2c(C)nsc12 [Example 46, [(7-Ethyl-4-hydroxy-3-methyl-isothiazolo[5,4-c]pyridine-5-carbonyl)-amino]-acetic acid]
99 | CCc1nc(C(=O)NCC(=O)O)c(O)c2snc(C)c12 [Example 47, [(4-Ethyl-7-hydroxy-3-methyl-isothiazolo[4,5-c]pyridine-6-carbonyl)-amino]-acetic acid]

More lines, now with the values behind:

Structure (SMILES) | inhibition at 200 µM [%]
O=C(O)CNC(=O)c1ncc2snc(-c3ccccc3F)c2c1O [Example 33, {[3-(2-Fluoro-phenyl)-4-hydroxy-isothiazolo[5,4-c]pyridine-5-carbonyl]-amino}-acetic acid] | 100
O=C(O)CNC(=O)c1nc(-c2ccccc2)c2snc(-c3ccccc3F)c2c1O [Example 34, {[3-(2-Fluoro-phenyl)-4-hydroxy-7-phenyl-isothiazolo[5,4-c]pyridine-5-carbonyl]-amino}-acetic acid] | 100
O=C(O)CNC(=O)c1nc(-c2ccc(Oc3ccccc3)cc2)c2snc(-c3ccccc3F)c2c1O [Example 35, {[3-(2-Fluoro-phenyl)-4-hydroxy-7-(4-phenoxy-phenyl)-isothiazolo[5,4-c]pyridine-5-carbonyl]-amino}-acetic acid] | 100
Cc1nc(C(=O)NCC(=O)O)c(O)c2c(-c3ccccc3F)nsc12 [Example 36, {[3-(2-Fluoro-phenyl)-4-hydroxy-7-methyl-isothiazolo[5,4-c]pyridine-5-carbonyl]-amino}-acetic acid] | 100
